Data reported in US20220362182A1, “METHODS FOR REVERSING HEPATIC STEATOSIS” (BRIGHTSEED, INC., priority 2020, published 2022).
“Also recorded” adds a separate entry of the source.

Tests used:
T6PNE cells = assay: fat clearance assay in palmitate-treated T6PNE cells (Oil Red O, Nile Red, triglyceride); assay type: cell-based, human; settings: for fat clearance (stored fat by Oil Red O and Nile Red staining): 0.25 mM palmitate for 2 days; for effect on fat clearance induced by NCT: palmitate, inhibitor or siRNA plus NCT
Experimental: Oil red O and Nile Red staining were used to measure lipid accumulation. Oil Red O staining was done as known in the art. Briefly, fixed cells were incubated with Oil Red O solution (Poly Scientific) for 3 h, followed by photomicrography (Olympus, IX71). For Nile Red staining, dye (1: 500 in PBS from 1 mg/ml in ethanol stock, Sigma) was added for 30 mins and DAPI added for 10 mins at room temperature. Quantification of Nile Red staining was done with a Celigo imaging cytometer (Nexcelom Bioscience). More than 4000 cells were analyzed for each quantification. The number of Nile Redpositive cells was normalized to the DAPI-positive cell number for each well and fold change was calculated relative to a DMSO control well.
Palmitate (150 mM) (Sigma-Aldrich) was prepared in 50% ethanol and precomplexed with 15% fatty acid-free BSA (Research Organics, Cleveland, Ohio, USA) in a 37 C water shaker. BSA-precomplexed palmitate was used as a 12 mM stock solution for all assays with a final concentration of 0.25 mM palmitate in cell culture medium.
siRNAs were purchased from Ambion. For transfections, 24 μL of each siRNA (1 μM stock) was mixed with 90 μL of a 1:100 dilution of Lipofectamine RNAi MAX (Invitrogen, Waltham, Mass., USA) in Opti-MEM. Transfection was done in 24 well plates (Thermo Fisher Scientific, Waltham, Mass., USA), by incubation with cells for 30 min. at room temperature. One day after transfection, cells were transferred to 96 well plates (2000 cells per well) and incubated at 37° C. for an additional day. Forty-eight hours after transfection, either palmitate-BSA complex or BSA control plus or minus compounds was added for 2 days. For validation of siRNAs, transfected cells were harvested for RNA purification and QPCR for each gene 2 days after transfection.
The bicinchoninic acid (BCA) protein assay kit assay (Thermo scientific) was used to measure protein amount for DART, Western blotting and TG assays. Absorbance at 550 nm was determined using a plate reader.

human insulin promoter = assay: modified insulin promoter assay repressed with palmitate; assay type: cell-based; settings: insulin promoter activity repressed with palmitate
Experimental: Alverine and benfluorex were ascertained in a modification of the insulin promoter assay in which the level of insulin promoter activity was repressed with palmitate. […] Cells were treated with 0.25 mM palmitate for 2 days in the presence and absence of NCT or NFT (10 μM).

HNF4α [1] = molecular target: T1, HNF4α (Homo sapiens, UniProt P41235); assay: T6PNE insulin promoter assay (human insulin promoter-GFP transgene); assay type: cell-based; set-up: endogenous in cells; host or cells: T6PNE cells; settings: T6PNE cells, GFP-positive cells relative to DMSO
T1 sequence (P41235 1-474): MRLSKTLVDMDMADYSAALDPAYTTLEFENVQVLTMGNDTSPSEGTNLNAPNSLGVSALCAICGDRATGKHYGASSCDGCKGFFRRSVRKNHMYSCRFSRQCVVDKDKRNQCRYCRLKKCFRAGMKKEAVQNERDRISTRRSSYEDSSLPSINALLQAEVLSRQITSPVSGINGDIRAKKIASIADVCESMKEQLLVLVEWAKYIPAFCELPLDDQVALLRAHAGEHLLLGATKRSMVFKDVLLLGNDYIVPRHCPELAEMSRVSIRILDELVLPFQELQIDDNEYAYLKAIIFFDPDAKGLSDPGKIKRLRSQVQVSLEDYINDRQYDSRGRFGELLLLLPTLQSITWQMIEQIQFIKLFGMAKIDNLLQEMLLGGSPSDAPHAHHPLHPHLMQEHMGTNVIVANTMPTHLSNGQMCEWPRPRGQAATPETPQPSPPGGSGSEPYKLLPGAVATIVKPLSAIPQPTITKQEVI
Experimental: The T6PNE insulin promoter assay has been described previously and was performed here with slight modifications as follows: T6PNE cells were seeded at 200 cells per well in 384-well tissue culture plates (Greiner Bio-One) in the presence of 0.5 μM tamoxifen. Compounds described herein in DMSO were dispensed with an Echo 555 Acoustic Liquid Handler (Beckman Coulter). Three days after compound addition, cells were fixed in 4% paraformaldehyde (USBio) for 15 min and stained with DAPI (0.167 μg/ml, Invitrogen). Blue (DAPI) and green (GFP) channels were imaged using a Celigo imaging cytometer (Nexcelom Bioscience). The number of GFPpositive cells was normalized to the DAPI-positive cell number and fold change calculated relative to the DMSO control.
T6PNE cells were maintained in RPMI (5.5mM glucose, Corning) supplemented with 10% fetal bovine serum (FBS, Sigma-Aldrich) and 1% penicillin-streptomycin (pen-strep, Gibco). Cells were maintained in 5% CO2 at 37° C. For the insulin promoter assay, 0.5 μM tamoxifen (Sigma-Aldrich) was added to T6PNE cell culture media. HepG2 or HeLa cells were cultured in DMEM (high glucose, Corning) supplemented with 10% FBS and 1% pen-strep and maintained at 5% CO2, 37° C.

p62 = p62 Western blot in T6PNE cells; assay type: cell-based, human; settings: NCT 10 μM, RA 10 μM, fenretinide
Experimental: (§1) Whole-cell extracts were prepared by incubation in RIPA buffer (Invitrogen) containing protease inhibitors (Calbiochem, San Diego, Calif.). Protein ([…]) was separated on 12% or 16% Tri-Glycine gels (Invitrogen) and transferred to Immobilon P membrane (0.2 μm pore, Millipore). After 1 h in phosphate-buffered saline-Tween (PBST) with 3% milk, membrane was incubated with antibodies to HNF4α (mouse, Novus, 1:1000), LC3B (rabbit, Novus, 1:500), p62 (SQSTM1, mouse, Santa Cruz, 1:1000) or β-actin (mouse, Santa Cruz, 1:2000), followed by secondary antibody conjugated to horseradish peroxidase (1:5000, Jackson Immune).

dihydroceramides = assay: lipidomic analysis of ceramides and dihydroceramides in T6PNE cells; assay type: cell-based, human
Experimental: Ceramides and dihydroceramides were measured in the UCSD Lipidomics Core Facility as previously described (Quehenberger et al.). Briefly, samples were extracted using the butanol: methanol (BUME) method. The lipid layer was collected and run on a Thermo-Vanquish UPLC (Thermo Scientific) with a Cortecs T3 (C18), 2.1 mm×150 mm; 1.8 uT3 column and a binary solvent system. Mass spectrometry employed a Thermo Q Exactive instrument with MS/MS data dependent acquisition scan mode and LipidSearch software (Thermo Fisher Scientific).

HNF4α [2] = settings: previous finding, cited from earlier work
HNF4α [3] = molecular target: T1, HNF4α; assay: DARTS assay (HNF4α protease sensitivity) in HepG2 cells; assay type: binding; set-up: Total cell protein was extracted; endogenous in cells; host or cells: HepG2 cells; settings: 40 or 80 μM for 16 h, subtilisin
Experimental: DARTS assays were conducted as described in the art. HepG2 cells were treated with DMSO, BI6015, NCT, NFT at a concentration of 40 or 80 μM for 16 hr. Total cell protein was extracted and measured by BCA protein assay (Thermo Scientific). Each sample was split into two aliquots for proteolysis without (−) or with (+) Subtilisin (Sigma-Aldrich). Forty […] of cell lysate was incubated with or without protease (40 ng/ml subtilisin) for 35 min at room temperature.
as §1

[4] = clinical trials for type 2 diabetes; cited from earlier work
CYP26A1 mRNA = CYP26A1 mRNA in T6PNE cells; assay type: cell-based, human; settings: 2 days, 0.25 mM palmitate, NCT 10 μM, 4-OH-RA 20 μM
Experimental: Quantitative PCR (Q-PCR) from in vitro cell culture experiments used total RNA purified using RNeasy Kits (Qiagen). For liver tissue samples, total RNA was isolated using Trizol (Invitrogen) and prepared for RNAseq (mouse liver DMSO and NCT, N=3). cDNA was amplified using 3 μg of total RNA using qScript cDNA SuperMix (Quanta BioSciences, Beverly, Mass., USA). QPCR analysis was performed using SYBR® Select Master Mix (Applied Biosystems) and ABI 7900HT (Applied Biosystems, Thermo Fisher Scientific). The Ct values of mRNA expression were then normalized to the 18 s rRNA values and are expressed as fold change over samples from mice fed normal chow for in vivo experiments or DMSO controls for cell culture experiments.

CCCCCCCCCCCCC/C=C/[C@@H](O)[C@@H](N)COP(=O)(O)O [S1P, sphingosine-1-phosphate]
fat clearance (stored fat by Oil Red O and Nile Red staining) (T6PNE cells): did not have any effect on fat storage; also recorded: neither S1P nor FTY720 had any effect on fat clearance

CCCCCCCCCCCCCC1=C([C@H](O)[C@@H](CO)NC(=O)CCCCCCC)C1 [GT-11, N-[(1R,2S)-2-hydroxy-1-hydroxymethyl-2-(2-tridecyl-1-cyclopropenyl)ethyl] octanamide]
fat clearance (stored fat by Oil Red O and Nile Red staining) (T6PNE cells): strongly positive; also recorded: increase fat clearance

O=C(Oc1nsnc1N1CCCCC1)N1CCCCC1 [Lalistat 2]
effect on fat clearance induced by NCT (T6PNE cells): eliminated the ability of N-trans-caffeoyltyramine to effect fat clearance; also recorded: inhibited the ability of NCT to promote fat clearance
effect on fat clearance induced by NCT (T6PNE cells; listed as Lalistat2): inhibits the effect of NCT on fat clearance

CCN(CCCc1ccccc1)CCCc1ccccc1 [alverine, reference compound]
fatty acid-mediated repression of the human insulin promoter (human insulin promoter): reversed the fatty acid-mediated repression of the human insulin promoter
insulin promoter activity / HNF4α activation (HNF4α [1]): relatively weak activators; also recorded: fairly weak HNF4α activators

dihydroceramide
fat clearance (stored fat by Oil Red O and Nile Red staining) (T6PNE cells): active at inducing fat clearance

CC1=C(/C=C/C(C)=C/C=C/C(C)=C/C(=O)Nc2ccc(O)cc2)C(C)(C)CCC1 [Fenretinide, fenretinide, reference compound]
fat clearance (stored fat by Oil Red O and Nile Red staining) (T6PNE cells): strongly positive
fat clearance (stored fat by Oil Red O and Nile Red staining) (T6PNE cells; listed as fenretinide): induced fat clearance from T6PNE cells
p62 protein expression normalized to actin (p62): had a statistically significant effect
dihydroceramide production (dihydroceramides; 2 days after treatment): induced multiple identical dihydroceramides
ceramide (Cer)/dihydroceramide (DH-Cer) ratio (dihydroceramides; NCT+RA 10 μM, fenretinide 5 μM): substantial decrease

Cc1ccc([N+](=O)[O-])cc1S(=O)(=O)n1c(C)nc2ccccc21 [BI6015]
hepatic steatosis (HNF4α [2]; in vitro and in vivo): caused hepatic steatosis in vitro and in vivo
HNF4α expression in the liver (HNF4α [2]; in vivo): caused loss of HNF4a expression in the liver; also recorded: caused loss of HNF4α expression in the liver
HNF4α proteolytic sensitivity / conformational change (HNF4α [3]): induced a conformational change in HNF4α

CC(Cc1cccc(C(F)(F)F)c1)NCCOC(=O)c1ccccc1 (centres unmarked) [benfluorex, reference compound]
fatty acid-mediated repression of the human insulin promoter (human insulin promoter): reversed the fatty acid-mediated repression of the human insulin promoter
HbA1c [4]: effective at reducing HbA1c
insulin promoter activity / HNF4α activation (HNF4α [1]): relatively weak activators; also recorded: fairly weak HNF4α activators

Nn1nnc2ccccc21 [ABT]
effect on fat clearance induced by NCT (T6PNE cells): inhibited fat clearance by NCT

CCC(CC)C(c1ccc(Nc2nc3ccccc3s2)cc1)n1cncn1 (centres unmarked) [talarazole]
effect on fat clearance induced by NCT (T6PNE cells): inhibited fat clearance by NCT

CC1=C(/C=C/C(C)=C/C=C/C(C)=C/C(=O)O)C(C)(C)CCC1O (centres unmarked) [4-OH RA, reference compound]
fat clearance (stored fat by Oil Red O and Nile Red staining) (T6PNE cells): induced fat clearance from T6PNE cells
CYP26A1 mRNA level (CYP26A1 mRNA): induced an increase in CYP26A1 mRNA

CCCCCCCCc1ccc(CCC(N)(CO)CO)cc1 [FTY720]
fat clearance (stored fat by Oil Red O and Nile Red staining) (T6PNE cells): neither S1P nor FTY720 had any effect on fat clearance
